# Data taken from ChEMBL document CHEMBL5120959, “Pyrrospirones K-Q, Decahydrofluorene-Class Alkaloids from the Marine-Derived Fungus Penicillium sp. SCSIO 41512” (J Nat Prod, 2022).
# What was measured:
# [1] = target: Tyrosine-protein phosphatase non-receptor type 6 (Homo sapiens, UniProt P29350); assay: Inhibition of human SHP1
# [2] = tested on: Bacillus amyloliquefaciens; assay: Antibacterial activity against Bacillus amyloliquefaciens GDMCC 60233 assessed as reduction in microbial growth after 12 hrs by microbroth dilution method; assay type: functional
# Escherichia coli [3] = assay: microbe, parasite or virus in culture; assay type: functional; conditions: ATCC 25922, time 12 hrs
# Description: Antibacterial activity against Escherichia coli ATCC 25922 assessed as reduction in microbial growth after 12 hrs by microbroth dilution method
# [4] = target: T1, Tyrosine-protein phosphatase non-receptor type 2 (Homo sapiens, UniProt P17706); assay: Inhibition of human TCPTP
# T1 sequence (P17706 whole entry): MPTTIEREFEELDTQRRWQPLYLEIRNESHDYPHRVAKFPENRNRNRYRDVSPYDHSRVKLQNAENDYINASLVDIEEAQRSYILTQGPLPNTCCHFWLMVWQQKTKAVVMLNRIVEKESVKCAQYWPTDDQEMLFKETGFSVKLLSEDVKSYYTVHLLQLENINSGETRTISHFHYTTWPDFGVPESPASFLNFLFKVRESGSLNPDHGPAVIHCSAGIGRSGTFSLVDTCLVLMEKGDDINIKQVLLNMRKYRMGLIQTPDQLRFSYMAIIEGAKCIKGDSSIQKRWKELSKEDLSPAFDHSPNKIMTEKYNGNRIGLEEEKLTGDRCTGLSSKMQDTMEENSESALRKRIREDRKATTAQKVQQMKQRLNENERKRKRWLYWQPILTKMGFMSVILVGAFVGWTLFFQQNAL
# Staphylococcus aureus [5] = assay: Antibacterial activity against methicillin-resistant Staphylococcus aureus assessed as reduction in microbial growth after 12 hrs by broth microdilution method; assay type: functional
# [6] = target: T2, Receptor-type tyrosine-protein phosphatase C (Homo sapiens, UniProt P08575); assay: Inhibition of human CD45
# T2 sequence (P08575 whole entry): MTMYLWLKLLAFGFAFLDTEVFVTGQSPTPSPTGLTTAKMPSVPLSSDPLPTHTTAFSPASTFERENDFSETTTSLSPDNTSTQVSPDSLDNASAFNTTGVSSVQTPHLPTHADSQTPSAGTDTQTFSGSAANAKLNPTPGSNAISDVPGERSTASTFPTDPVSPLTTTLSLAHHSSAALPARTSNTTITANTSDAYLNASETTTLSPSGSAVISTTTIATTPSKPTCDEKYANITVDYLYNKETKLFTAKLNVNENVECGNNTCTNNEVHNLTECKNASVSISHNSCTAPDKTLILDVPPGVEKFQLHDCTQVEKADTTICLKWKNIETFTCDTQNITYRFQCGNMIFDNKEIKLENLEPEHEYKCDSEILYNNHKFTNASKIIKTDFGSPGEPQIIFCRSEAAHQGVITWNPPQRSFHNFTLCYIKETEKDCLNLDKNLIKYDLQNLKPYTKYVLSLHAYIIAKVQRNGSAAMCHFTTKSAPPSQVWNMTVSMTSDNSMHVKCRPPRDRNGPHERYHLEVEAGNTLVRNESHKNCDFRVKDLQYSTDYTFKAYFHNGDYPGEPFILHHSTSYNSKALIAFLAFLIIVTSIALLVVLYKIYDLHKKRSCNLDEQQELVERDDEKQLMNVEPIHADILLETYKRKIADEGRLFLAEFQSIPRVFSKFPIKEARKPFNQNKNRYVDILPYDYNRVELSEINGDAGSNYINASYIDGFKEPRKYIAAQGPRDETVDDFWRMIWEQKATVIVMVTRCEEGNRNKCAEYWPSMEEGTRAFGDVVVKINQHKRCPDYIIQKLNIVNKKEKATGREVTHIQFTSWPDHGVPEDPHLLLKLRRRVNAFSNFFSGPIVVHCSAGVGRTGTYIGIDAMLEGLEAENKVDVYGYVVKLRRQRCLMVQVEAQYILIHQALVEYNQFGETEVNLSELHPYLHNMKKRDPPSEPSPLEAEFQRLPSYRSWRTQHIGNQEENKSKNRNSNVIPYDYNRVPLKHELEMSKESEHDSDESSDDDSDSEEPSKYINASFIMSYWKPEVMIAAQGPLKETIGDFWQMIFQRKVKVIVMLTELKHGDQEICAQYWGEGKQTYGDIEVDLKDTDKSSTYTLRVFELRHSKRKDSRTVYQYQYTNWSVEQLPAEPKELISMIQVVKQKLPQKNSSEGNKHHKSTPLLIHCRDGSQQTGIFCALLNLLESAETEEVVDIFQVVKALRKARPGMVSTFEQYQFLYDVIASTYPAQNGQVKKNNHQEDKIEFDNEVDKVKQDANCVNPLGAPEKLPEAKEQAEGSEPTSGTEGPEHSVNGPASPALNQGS
# [7] = target: T3, Tyrosine-protein phosphatase non-receptor type 1 (Homo sapiens, UniProt P18031); assay: Inhibition of human PTP1B
# T3 sequence (P18031 whole entry): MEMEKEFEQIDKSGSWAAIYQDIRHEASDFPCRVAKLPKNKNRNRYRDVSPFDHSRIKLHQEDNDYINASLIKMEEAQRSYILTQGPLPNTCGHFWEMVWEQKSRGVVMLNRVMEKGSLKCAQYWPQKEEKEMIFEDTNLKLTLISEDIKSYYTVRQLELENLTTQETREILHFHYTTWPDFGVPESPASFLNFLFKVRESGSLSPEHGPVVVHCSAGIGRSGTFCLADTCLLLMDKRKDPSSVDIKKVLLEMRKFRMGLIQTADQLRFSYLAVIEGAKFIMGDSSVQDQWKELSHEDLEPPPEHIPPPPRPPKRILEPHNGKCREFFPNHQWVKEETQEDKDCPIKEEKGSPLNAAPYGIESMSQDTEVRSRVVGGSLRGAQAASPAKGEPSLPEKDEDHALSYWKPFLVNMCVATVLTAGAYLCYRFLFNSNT
# Bacillus subtilis = assay: Antibacterial activity against Bacillus subtilis BS01 assessed as reduction in microbial growth after 12 hrs by microbroth dilution method; assay type: functional
# Escherichia coli [8] = assay: Antibacterial activity against Escherichia coli assessed as reduction in microbial growth after 12 hrs by broth microdilution method; assay type: functional
# Staphylococcus aureus [9] = assay: Antibacterial activity against methicillin-resistant Staphylococcus aureus assessed as reduction in microbial growth after 12 hrs by microbroth dilution method; assay type: functional
# Staphylococcus aureus [10] = assay: Antibacterial activity against Staphylococcus aureus ATCC 6538 assessed as reduction in microbial growth after 12 hrs by microbroth dilution method; assay type: functional
# Streptococcus agalactiae = assay: Antibacterial activity against Streptococcus agalactiae ATCC 13813 assessed as reduction in microbial growth after 12 hrs by microbroth dilution method; assay type: functional
# [11] = target: Receptor-type tyrosine-protein phosphatase F (Homo sapiens, UniProt P10586); assay: Inhibition of human LAR
# NCI-H1975 = assay: Cytotoxicity against human NCI-H1975 cells assessed as reduction in cell viability after 24 hrs by CCK8 assay; assay type: functional, cell-based; conditions: NCI-H1975, 24 h
# Receptor-type tyrosine-protein phosphatase F, sequence (P10586 whole entry): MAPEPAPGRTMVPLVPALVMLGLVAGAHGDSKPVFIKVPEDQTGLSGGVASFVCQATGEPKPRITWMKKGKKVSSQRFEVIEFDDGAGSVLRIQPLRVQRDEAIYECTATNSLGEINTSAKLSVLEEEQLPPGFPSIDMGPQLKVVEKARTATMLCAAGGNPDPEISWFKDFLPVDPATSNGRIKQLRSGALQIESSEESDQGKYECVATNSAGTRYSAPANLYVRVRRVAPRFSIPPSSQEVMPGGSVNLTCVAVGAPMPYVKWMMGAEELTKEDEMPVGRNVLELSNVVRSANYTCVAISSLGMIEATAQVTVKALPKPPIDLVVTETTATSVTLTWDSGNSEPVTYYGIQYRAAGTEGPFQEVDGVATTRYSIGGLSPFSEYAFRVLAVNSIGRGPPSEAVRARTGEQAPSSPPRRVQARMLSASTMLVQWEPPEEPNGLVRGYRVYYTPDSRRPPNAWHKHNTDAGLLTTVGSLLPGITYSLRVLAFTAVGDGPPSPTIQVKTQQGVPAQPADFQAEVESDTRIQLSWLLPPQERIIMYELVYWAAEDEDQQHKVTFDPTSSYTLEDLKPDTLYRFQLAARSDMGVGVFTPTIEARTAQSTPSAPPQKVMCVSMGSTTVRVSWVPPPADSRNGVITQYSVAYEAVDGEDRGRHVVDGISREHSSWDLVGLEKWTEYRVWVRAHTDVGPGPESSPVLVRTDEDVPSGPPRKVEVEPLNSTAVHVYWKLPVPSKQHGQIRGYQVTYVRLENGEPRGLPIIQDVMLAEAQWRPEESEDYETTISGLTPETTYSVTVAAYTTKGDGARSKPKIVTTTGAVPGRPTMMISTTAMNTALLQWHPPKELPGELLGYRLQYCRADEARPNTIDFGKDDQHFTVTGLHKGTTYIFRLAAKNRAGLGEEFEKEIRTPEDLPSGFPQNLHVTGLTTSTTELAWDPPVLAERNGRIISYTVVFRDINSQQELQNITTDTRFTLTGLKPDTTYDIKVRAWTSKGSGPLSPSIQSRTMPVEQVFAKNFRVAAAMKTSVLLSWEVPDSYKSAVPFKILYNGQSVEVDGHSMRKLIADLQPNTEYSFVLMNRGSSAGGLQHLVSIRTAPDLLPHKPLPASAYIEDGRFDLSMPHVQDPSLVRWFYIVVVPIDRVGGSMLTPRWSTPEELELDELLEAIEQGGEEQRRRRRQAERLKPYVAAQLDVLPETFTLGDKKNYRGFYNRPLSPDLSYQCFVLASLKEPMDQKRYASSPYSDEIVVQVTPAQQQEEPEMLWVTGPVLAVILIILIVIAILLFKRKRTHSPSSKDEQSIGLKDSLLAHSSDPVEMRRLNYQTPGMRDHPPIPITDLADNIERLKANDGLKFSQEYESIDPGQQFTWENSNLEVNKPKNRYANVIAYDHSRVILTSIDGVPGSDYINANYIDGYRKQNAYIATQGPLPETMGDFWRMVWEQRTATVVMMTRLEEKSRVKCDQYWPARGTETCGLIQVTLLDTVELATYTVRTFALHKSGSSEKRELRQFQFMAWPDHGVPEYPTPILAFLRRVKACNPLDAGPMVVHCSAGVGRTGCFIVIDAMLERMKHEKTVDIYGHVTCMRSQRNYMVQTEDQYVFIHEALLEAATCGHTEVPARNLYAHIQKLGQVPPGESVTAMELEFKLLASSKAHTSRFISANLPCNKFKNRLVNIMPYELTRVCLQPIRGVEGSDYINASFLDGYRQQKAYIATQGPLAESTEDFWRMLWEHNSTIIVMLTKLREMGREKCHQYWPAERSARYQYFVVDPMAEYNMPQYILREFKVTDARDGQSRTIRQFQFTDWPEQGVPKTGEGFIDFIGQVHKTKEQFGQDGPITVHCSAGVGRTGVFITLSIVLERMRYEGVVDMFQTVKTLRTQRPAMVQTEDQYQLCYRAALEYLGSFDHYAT
# Tyrosine-protein phosphatase non-receptor type 6, sequence (P29350 whole entry): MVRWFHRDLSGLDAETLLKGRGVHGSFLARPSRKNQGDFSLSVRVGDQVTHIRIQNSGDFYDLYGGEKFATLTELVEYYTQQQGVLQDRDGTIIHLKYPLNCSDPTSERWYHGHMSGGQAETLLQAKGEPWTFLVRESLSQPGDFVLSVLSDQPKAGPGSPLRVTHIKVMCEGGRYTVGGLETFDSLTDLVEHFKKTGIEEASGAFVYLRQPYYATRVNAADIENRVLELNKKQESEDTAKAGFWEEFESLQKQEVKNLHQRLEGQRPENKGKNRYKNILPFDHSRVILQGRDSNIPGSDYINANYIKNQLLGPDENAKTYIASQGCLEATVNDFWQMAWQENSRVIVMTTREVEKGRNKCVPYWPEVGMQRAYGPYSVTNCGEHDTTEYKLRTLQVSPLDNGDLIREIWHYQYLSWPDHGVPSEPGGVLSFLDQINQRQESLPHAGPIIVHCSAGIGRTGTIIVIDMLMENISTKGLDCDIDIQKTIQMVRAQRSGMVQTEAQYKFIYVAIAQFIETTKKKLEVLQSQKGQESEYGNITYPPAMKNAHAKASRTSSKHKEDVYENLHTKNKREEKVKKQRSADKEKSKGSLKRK
compound,measurement,setting,value
CC(=O)c1ccc(NC2=C(Cl)C(=O)c3ccccc3C2=O)cc1,IC50,[1],0.29 µM
CO[C@@H]1C2Cc3ccc(cc3)O[C@H]3[C@@H]4[C@H]5C(=O)[C@@]1(C[C@H](O)[C@@]5(C)C=C(C)[C@H]4[C@]1(C)C[C@H](C)C[C@H](C)[C@@H]31)C(=O)N2,MIC,[2],100 µg/mL
same,MIC,Escherichia coli [3],50 µg/mL
same,IC50,[4],> 200 µM
same,MIC,Staphylococcus aureus [5],2 µg/mL
same,IC50,[6],> 200 µM
same,IC50,[7],66 µM
same,MIC,Bacillus subtilis,50 µg/mL
same,MIC,Escherichia coli [8],2 µg/mL
same,IC50,[1],80 µM
same,MIC,Staphylococcus aureus [9],100 µg/mL
same,MIC,Staphylococcus aureus [10],100 µg/mL
same,MIC,Streptococcus agalactiae,100 µg/mL
same,IC50,[11],> 200 µM
CN[C@@H]1[C@@H](O)[C@@H](O[C@@H]2[C@@H](O)[C@H](O[C@H]3O[C@H](CN)CC[C@H]3N)[C@@H](N)C[C@H]2N)OC[C@]1(C)O.O=S(=O)(O)O,MIC,[2],1 µg/mL
same,MIC,Bacillus subtilis,0.5 µg/mL
same,MIC,Staphylococcus aureus [9],5 µg/mL
same,MIC,Staphylococcus aureus [10],2 µg/mL
same,MIC,Streptococcus agalactiae,10 µg/mL
CO[C@@H]1C2Cc3ccc(cc3)O[C@H]3[C@@H]4[C@H]5C(=O)[C@@]1(C[C@@H](O)[C@@]5(C)C=C(C)[C@H]4[C@]1(C)C[C@H](C)C[C@H](C)[C@@H]31)C(=O)N2,MIC,[2],20 µg/mL
same,MIC,Escherichia coli [3],5 µg/mL
same,IC50,[4],> 200 µM
same,MIC,Staphylococcus aureus [5],2 µg/mL
same,IC50,[6],> 200 µM
same,IC50,[7],100 µM
same,MIC,Bacillus subtilis,10 µg/mL
same,MIC,Escherichia coli [8],2 µg/mL
same,IC50,[1],100 µM
same,MIC,Staphylococcus aureus [9],20 µg/mL
same,MIC,Staphylococcus aureus [10],20 µg/mL
same,MIC,Streptococcus agalactiae,20 µg/mL
same,IC50,[11],> 200 µM
CO[C@@H]1/C2=C3\O[C@@H](C)[C@@]4(C)C=C(C)[C@@H]5[C@H]([C@H](Oc6ccc(cc6)C[C@]1(O)NC2=O)[C@@H]1[C@@H](C)C[C@@H](C)C[C@]15C)[C@@H]34,IC50,[4],79 µM
same,IC50,NCI-H1975,55 µM
same,IC50,[6],190 µM
same,IC50,[7],39 µM
same,IC50,[1],63 µM
same,IC50,[11],> 200 µM
C=C[C@@]1(C)C=C(C)[C@@H]2[C@@H]3[C@@H](Oc4ccc(cc4)C[C@@]4(O)C/C(=C(/O)[C@H]31)C(=O)N4)[C@@H]1[C@@H](C)C[C@@H](C)C[C@]12C,MIC,[2],20 µg/mL
same,MIC,Escherichia coli [3],20 µg/mL
same,IC50,[4],92 µM
same,IC50,NCI-H1975,72 µM
same,IC50,[6],100 µM
same,IC50,[7],89 µM
same,MIC,Bacillus subtilis,10 µg/mL
same,IC50,[1],100 µM
same,MIC,Staphylococcus aureus [9],20 µg/mL
same,MIC,Staphylococcus aureus [10],20 µg/mL
same,MIC,Streptococcus agalactiae,20 µg/mL
same,IC50,[11],> 200 µM
C[C@@H]1C[C@H](C)[C@H]2[C@H]3Oc4ccc(cc4)C[C@]4(O)C[C@]5(C[C@H](O)OO[C@@]6(C)[C@H]7O[C@@]7(C)[C@H]([C@H]3[C@H]6C5=O)[C@]2(C)C1)C(=O)N4,MIC,[2],50 µg/mL
same,MIC,Escherichia coli [3],50 µg/mL
same,IC50,[4],> 200 µM
same,IC50,NCI-H1975,> 80 µM
same,IC50,[6],> 200 µM
same,IC50,[7],> 200 µM
same,MIC,Bacillus subtilis,50 µg/mL
same,IC50,[1],> 200 µM
same,MIC,Staphylococcus aureus [9],50 µg/mL
same,MIC,Staphylococcus aureus [10],50 µg/mL
same,MIC,Streptococcus agalactiae,50 µg/mL
same,IC50,[11],> 200 µM
